Data set [1] is described as follows: Dynamic Precipitation Model (absorbance at 500 nm on infusion into blood surrogate). In kind it is physicochemical. As for the experimental part: Dynamic Precipitation Model. The dynamic precipitation apparatus is shown in FIG. 1, and is also described in Johnson et al., (2003). The apparatus includes a predetermined distance, illustratively a 15 cm distance, between the tip of the injection needle and the UV flow cell, and three main components to simulate blood flow and different infusion rates of drug. Illustratively, a Cole-Palmer-Masterflex® 7520-00 peristaltic pump is used to direct the flow of blood surrogate at 5 mL/min. Illustratively, a Harvard Apparatus Precision Syringe Pump 22 is used to infuse drug formulations into the system at various injection rates. Illustratively, a Cary UV-50 Bio Spectrophotometer with a 1.00 cm flow cell is used to monitor absorbance as a measure of precipitation in the formulation-blood surrogate system. Each sample is prepared by dissolving test compound and formulation agents into water or vehicle, and adjusting the pH with either 1 M HCl or 1 M NaOH, as appropriate to the indicated final concentration of test compound. Lactic, citric, and tartaric acid formulation agent stock solutions are made by dissolving the predetermined weight of solid or liquid into water and adjusting pH with either 1 M HCl or 1 M NaOH. The blood surrogate (Isotonic Sorensen's Phosphate Buffer, 0.067 M, pH 7.4) is pumped from a reservoir through Tygon® tubing (R-6306) fitted with 2 IV-set Y-injection sites that pass into the flow cell and terminate in a waste container. […]-35 flow meter, along with a timer and graduated cylinder, is used to measure the rate of surrogate blood flow through the system. Illustratively, flow is 5 mL/min. The test compound formulations are infused at different rates through the downstream second Y-injection site into the flow of the blood surrogate entering into the flow cell. A 0.001 M HCl solution is injected into the first Y-injection site following each infusion of test compound to flush the downstream tubing and flow cell. All injections are performed at 25° C. The spectrophotometer software (Cary UVWin) is set to read a constant absorbance, illustratively 500 nm, versus time. Samples are made with buffer and drug concentrations as described. After the flow rate is confirmed at 5 mL/min, the spectrophotometer is set to record absorbance at 500 nm for 5-10 minutes, and injections are performed at different rates as specified. To prevent any residual precipitation build up in the tubing or flow cell, a flush of pH 3 HCl is performed between injections. The flow cell is optionally visually inspected between runs for the presence of precipitation. Static precipitation measurements are also optionally performed by a two-fold serial dilution of test compound formulation in blood surrogate using a laser pointer as a Tyndall beam to determine the presence of particulates. […] An absorbance at or above 0.05 is considered to be the threshold level for assessing precipitation having phlebitic potential.

In data set [2] the test system is New Zealand White female rabbits. Put plainly: Pain Tolerance Evaluation, Single Dose Rabbit Ear Vein Model Study. In kind it is in vivo. To be noted: single dose infusions in marginal ear vein, observed during and 30 minutes post infusion. Here is the method:
Pain Tolerance Evaluation Following Intravenous Infusion in Rabbit. Single Dose Rabbit Ear Vein Model Study. New Zealand White female rabbits weighing 2.5-3.2 kg are evaluated for pain, ear inflammation and phlebitis after intravenous infusion of test compound. Commercial azithromycin citrate is used as a positive control.
CEM-101 lyo (SOL (250.0 mg), mannitol, USP (250.0 mg), L(+)-tartaric acid, USP (29.0 mg), sodium hydroxide, NF (for pH adjustment to pH 4.2)) is reconstituted in a vehicle or formulation as described herein. The placebo is the same formulation without SOL. The reconstituted SOL or placebo is dissolved in an appropriate vehicles, such as 0.45% saline, 0.5% lactic acid at pH 4 in 0.45% saline, 0.5% lactic acid with 10 mM tartaric acid at pH 4 in 0.45% saline. CEM-101 lyo is dissolved in the appropriate vehicle at concentrations of 2 mg/mL or 3 mg/mL. The CEM-101 placebo formulation is dissolved in 0.45% saline. All rabbits are weighed to calculate dosing volumes.
Azithromycin lyophilized vials are commercially available azithromycin citrate for injection (ZITHROMAX IV) in lyophilized form in a 10-mL vial equivalent to 500 mg of azithromycin for intravenous administration. […]
Animals were observed during and post (30 minutes) each infusion, and reactions were scored according to a modified Draize Score and recorded. […]

In the case of “Azithromycin Citrate [Azitromycin citrate, reference compound]”, the Absorbance result in data set [1] (2 mg/mL, 4 mL/min, 0.45% NaCl) was “++++ ((++++) = BQL of <0.003)”. Besides, the precipitation entry in data set [1] (citrate buffered solution in 0.45% saline at 2 mg/mL and 4 mL/min) was “does not exhibit precipitation and BQL”. For the same substance, the “reactions upon test article administration” value in data set [2] was “strong movement of ear, head and body with vocalization”.

The values are drawn from US10188674B2, “Parenteral formulations for administering macrolide antibiotics” (Cempra Pharmaceuticals, Inc., priority 2012, dated 2019).
